In US12410160B2 (Gilead Sciences, Inc., priority 2021, dated 2025):
Like-named read-outs stand apart in the source and are kept apart here.

What was measured:
human OATP1B1 = human OATP1B1 (Homo sapiens (Human), UniProt Q9Y6L6); experiment: In Vitro Inhibition Assessment with Human OATP1B1 Transporter; type: in vitro ADME; conditions: HEK293-OATP1B1 cells, probe substrate pravastatin
Experimental: In Vitro Inhibition Assessment with Human OATP1B1 and OATP1B3 Transporters Assay Protocol
The purpose of this assay was to assess the inhibition potential of test article (TA) toward human OATP1B1 and OATP1B3 transporters in vitro using cell lines transfected with the individual transporters. The assays used clinically relevant probe substrate pravastatin and a known positive control inhibitor rifampicin. HEK293 mock, HEK293-OATP1B1, and HEK293-OATP1B3 transfected cells were seeded onto CellCoat Poly-D-Lysine coated 96 well black cell culture plates with clear bottoms (Greiner bio-one, Cat. #655946) at a density of 70,000 cells/well and cultured to confluency overnight. Seeding media used was Dulbecco's Modification of Eagle's Medium (DMEM—with GlutaMAX high glucose; Gibco, Cat #: 10569-010) supplemented with 10% fetal bovine serum, 0.1 mM non-essential amino acids, 100 U/mL penicillin, and 100 μg/mL streptomycin. On assay day, media were removed from the assay plates and cells were washed with Hanks' Balanced Salt Solution (HBSS Buffer) (Corning, Cat. #21-023-CV). All TAs and reference inhibitor were serially diluted in DMSO to create spiking solutions at concentrations of 250-fold of final assay concentrations (final DMSO content 0.4%). Cells were preincubated with HBSS buffer containing test compounds for 15 minutes. After the removal of HBSS buffer, dose solution containing TA or reference inhibitor and probe substrate were added to the HEK293-OATP1B1, HEK-293-OATP1B3 and its associated mock cell plate, respectively. The co-incubation period of TAs with the corresponding probe substrate for all plates was 5 minutes. An aliquot of the dose solution was removed from the HEK293 mock cell plates and analysed for dose recovery. Cells were then washed three times with ice cold HBSS buffer and then immediately extracted with methanol:water (70:30 v:v) containing internal standard labetolol (30 nM). The supernatants were evaporated to dryness on injection plates and reconstituted in 80% water containing 20% acetonitrile and 0.1% formic acid for analysis by liquid chromatography with tandem mass spectrometry (LC-MS-MS).
Fractional transport activities were calculated from the equation: Activity %=(A−B)/(C−D)×100
• A: translocated amount of substrate in the presence of TA on transfected cells • B: translocated amount of substrate in the presence of TA on Mock cells • C: translocated amount of substrate in the presence of solvent on transfected cells • D: translocated amount of substrate in the presence of solvent on Mock cells
GraphPad Prism 7.0 (GraphPad Software Inc., San Diego, CA) was used for curve fitting and determination of reaction parameters. In uptake transporter inhibition assays, the IC50 (μM) was calculated, where applicable. IC50 was defined as the concentration of TA required to inhibit maximal activity by 50%.

[1] = biological target: KHK-C expressed in NRK-52E cells (Homo sapiens (Human), UniProt P50053); experiment: KHK-C Cell-based Assay (EC50), NRK CTG, fructose-mediated ATP-depletion
Chain of KHK-C expressed in NRK-52E cells (P50053 whole entry): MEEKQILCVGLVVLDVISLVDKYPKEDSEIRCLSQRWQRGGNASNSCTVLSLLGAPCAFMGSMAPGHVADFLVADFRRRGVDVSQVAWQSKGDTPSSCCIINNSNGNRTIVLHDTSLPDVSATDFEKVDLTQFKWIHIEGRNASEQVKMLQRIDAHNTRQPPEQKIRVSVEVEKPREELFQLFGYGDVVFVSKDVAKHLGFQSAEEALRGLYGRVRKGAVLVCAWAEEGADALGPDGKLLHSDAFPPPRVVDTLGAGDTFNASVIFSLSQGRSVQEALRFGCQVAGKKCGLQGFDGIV

human KHK-C = human KHK-C (Homo sapiens (Human), UniProt P50053); experiment: KHK Biochemical Assay (IC50), ADP-Glo, KHK-C; conditions: average of at least two separate assays
Chain of human KHK-C (P50053 whole entry): as above
How it was run: (§1)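 ADP-Glo luminescence measured ADP made over a 4 h room-temperature reaction of ATP plus fructose, started after 30 min compound–enzyme pre-incubation. Buffer: 50 mM Hepes pH 7.4, 140 mM KCl, 5 mM MgCl2, 0.01% Triton-X. Enzyme was His-tagged, BL21 (DE3)-expressed, Ni-NTA-purified; compounds in 1:3 DMSO dilution series.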

HepG2 cells = experiment: F1P Cell-Based Assay (EC50), 13C6-fructose-1-phosphate in HepG2 cells (cell culture medium or 50% human plasma); conditions: Homo sapiens
human KHK-A = human KHK-A (Homo sapiens (Human), UniProt P50053); experiment: KHK Biochemical Assay (IC50), ADP-Glo, KHK-A; conditions: average of at least two separate assays
Chain of human KHK-A (P50053 other isoform, or with tags, fused parts or gaps): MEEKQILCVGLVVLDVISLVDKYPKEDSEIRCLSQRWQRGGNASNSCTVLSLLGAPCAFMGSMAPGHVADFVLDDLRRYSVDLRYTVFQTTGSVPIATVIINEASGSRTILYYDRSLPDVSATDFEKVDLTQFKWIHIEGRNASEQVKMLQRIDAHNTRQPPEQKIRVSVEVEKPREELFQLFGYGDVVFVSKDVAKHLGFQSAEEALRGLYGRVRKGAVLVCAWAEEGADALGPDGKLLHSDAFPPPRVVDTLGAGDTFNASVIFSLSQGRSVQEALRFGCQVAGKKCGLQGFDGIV
How it was run: as §1

[2] = HepG2, HepG2 cells, 50% human plasma, read-out: F1P 50% HP EC50
[3] = HepG2, read-out: F1P 10% FBS EC50, HepG2 cells, cell culture medium (10% FBS)

Chain of human OATP1B1 (Q9Y6L6 whole entry): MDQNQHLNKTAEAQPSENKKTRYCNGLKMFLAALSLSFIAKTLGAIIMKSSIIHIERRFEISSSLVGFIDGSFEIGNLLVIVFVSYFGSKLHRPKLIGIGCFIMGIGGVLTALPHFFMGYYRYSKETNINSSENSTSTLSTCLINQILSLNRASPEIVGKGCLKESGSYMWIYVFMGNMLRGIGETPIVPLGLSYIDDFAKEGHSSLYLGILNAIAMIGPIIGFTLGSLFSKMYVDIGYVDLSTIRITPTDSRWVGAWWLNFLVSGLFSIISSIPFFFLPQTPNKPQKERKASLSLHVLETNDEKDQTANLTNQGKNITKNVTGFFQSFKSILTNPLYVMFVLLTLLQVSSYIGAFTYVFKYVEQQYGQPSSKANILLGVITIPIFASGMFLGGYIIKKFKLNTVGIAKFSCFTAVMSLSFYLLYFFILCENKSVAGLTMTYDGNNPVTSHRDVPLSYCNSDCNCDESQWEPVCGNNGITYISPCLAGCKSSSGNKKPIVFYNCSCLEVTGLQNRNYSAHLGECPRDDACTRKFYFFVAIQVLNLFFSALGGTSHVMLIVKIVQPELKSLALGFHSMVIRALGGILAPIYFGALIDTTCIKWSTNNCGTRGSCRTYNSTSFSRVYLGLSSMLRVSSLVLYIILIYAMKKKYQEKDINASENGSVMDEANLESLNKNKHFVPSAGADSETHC

SMILES | IC50 (human OATP1B1) [nM] | EC50 [1] [nM] | IC50 (human KHK-C) [nM] | EC50 (HepG2 cells; [2]) [nM] | EC50 (HepG2 cells; [3]) [nM] | IC50 (human KHK-C; ADP-Glo) [nM] | IC50 (human KHK-A) [nM]
C[C@H]1[C@H](O)CN1c1nc(-c2ccc3c(c2)CCCNC3=O)c2c(n1)C(F)(F)CC2 [Example 178, 7-(7,7-difluoro-2-((2S,3R)-3-hydroxy-2-methylazetidin-1-yl)-6,7-dihydro-5H-cyclopenta[d]pyrimidin-4-yl)-2,3,4,5-tetrahydro-1H-benzo[c]azepin-1-one] | 1350 | 27.4 | – | 41 | 22.1 | 5.4 | –
C[C@H]1[C@H](O)CN1c1nc2c(c(-c3ccc4c(N)nccc4c3)n1)CCC2 [Example 385, (2S,3R)-1-[4-(1-amino-6-isoquinolyl)-6,7-dihydro-5H-cyclopenta[d]pyrimidin-2-yl]-2-methyl-azetidin-3-ol] | 687 | 4.2 | – | 11.1 | 6.5 | – | –
C[C@H]1CCN1c1nc2c(c(-c3cc4cc[nH]c(=O)c4s3)n1)CCC2 [Example 392, 2-[2-[(2S)-2-methylazetidin-1-yl]-6,7-dihydro-5H-cyclopenta[d]pyrimidin-4-yl]-6H-thieno[2,3-c]pyridin-7-one] | 100 | 3 | – | 85.1 | 10.9 | 1.5 | –
C[C@H]1CCN1c1nc2c(c(-c3ccc4c(=O)[nH]cc(S(N)(=O)=O)c4c3)n1)CCC2 [Example 433, 6-[2-[(2S)-2-methylazetidin-1-yl]-6,7-dihydro-5H-cyclopenta[d]pyrimidin-4-yl]-1-oxo-2H-isoquinoline-4-sulfonamide] | 967 | 484 | 6.3 | – | – | – | 27.2
C[C@H]1CCN1c1nc2c(c(-c3ccc4nc(N)[nH]c(=O)c4c3)n1)CCC2 [Example 463, (S)-2-amino-6-(2-(2-methylazetidin-1-yl)-6,7-dihydro-5H-cyclopenta[d]pyrimidin-4-yl)quinazolin-4(3H)-one] | 1360 | 150 | 3.9 | 46.3 | 7.3 | – | –

Second part, the molecule after the results:

IC50 (human OATP1B1) [nM] | EC50 [1] [nM] | IC50 (human KHK-C) [nM] | EC50 (HepG2 cells; [2]) [nM] | EC50 (HepG2 cells; [3]) [nM] | IC50 (human KHK-C; ADP-Glo) [nM] | IC50 (human KHK-A) [nM] | SMILES
4580 | 14.9 | 1.4 | 33.5 | 15.4 | – | – | C[C@H]1[C@H](O)CN1c1nc(-c2ccc3c(c2)OCC3NS(C)(=O)=O)c2c(n1)C(F)(F)CC2 (mixture of isomers) [Example 465]
892 | 46.1 | – | 80.3 | 30.2 | 11.2 | – | CCOc1cc(-c2nc(N3C[C@@H](O)[C@@H]3C)nc3c2CCC3(F)F)ccc1C(N)=O [Example 170, 4-(7,7-difluoro-2-((2S,3R)-3-hydroxy-2-methylazetidin-1-yl)-6,7-dihydro-5H-cyclopenta[d]pyrimidin-4-yl)-2-ethoxybenzamide]
3710 | 88.6 | – | 66.6 | 28.4 | 14.3 | – | COc1cc(-c2nc(N3C[C@@H](O)[C@@H]3C)nc3c2CCC3(F)F)ccc1C(N)=O [Example 177, 4-(7,7-difluoro-2-((2S,3R)-3-hydroxy-2-methylazetidin-1-yl)-6,7-dihydro-5H-cyclopenta[d]pyrimidin-4-yl)-2-methoxybenzamide]
2760 | 9.2 | 3.2 | 33.7 | 9.6 | – | – | C[C@H]1[C@H](O)CN1c1nc(-c2cccc(CN(C)S(C)(=O)=O)c2)c2c(n1)C(F)(F)CC2 [Example 462, N-(3-(7,7-difluoro-2-((2S,3R)-3-hydroxy-2-methylazetidin-1-yl)-6,7-dihydro-5H-cyclopenta[d]pyrimidin-4-yl)benzyl)-N-methylmethanesulfonamide]
> 40000 | 55 | 15.7 | 55.1 | 45.8 | – | – | C[C@H]1[C@H](O)CN1c1nc(-c2cccc(S(C)(=N)=O)c2)c2c(n1)C(F)(F)CC2 (stereo partly drawn) [Example 464]
